Assay results reported in article PMC12191028, “Preparation of Nanoparticle-Immobilized Gold Surfaces for the Reversible Conjugation of Neurotensin Peptide” (Biomolecules, 2025).

Columns and labels:
[1] = target: NTSR2 antibody; experiment: NTSR2 antibody–NTS(8–13) peptide binding affinity by microscale thermophoresis (MST); settings: Monolith NT.115 Pico, RED-NHS-labeled NTSR2 antibody 20 nM, PBS with 0.005% Tween-20, 20 min dark incubation, 16 serial dilutions from 0.5 mg/mL, free peptide in solution, n = 3, read-out: dissociation constant (Kd)
Experimental: An RED-NHS 2nd generation protein labeling kit and Monolith NT.115 premium capillaries were obtained from NanoTemper Technologies (Munich, Germany). The binding affinity of the NTSR2 antibody–NTS(8–13) peptide interaction was evaluated using microscale thermophoresis (MST) with Monolith NT.115 Pico instrument (NanoTemper Technologies, Munich, Germany). The NTSR2 antibody was labeled with the Monolith protein labeling kit and RED-NHS 2nd generation kit and used as a target molecule in PBS with 0.005% Tween-20. Experiments were conducted using the Monolith NT.115 premium capillariesat Pico-RED 80% excitation power and medium MST power with thermophoresis. For the labeled NTSR2 antibody, a concentration of 20 nM was used, whereas for the NTS(8–13) peptide, 16 serial dilutions were prepared starting from 0.5 mg/mL. Dark incubation was performed for 20 min after mixing the target and ligand molecule. Triplicate results were analyzed using the M.O. affinity analysisv.2.3 software.

[2] = target: high-affinity receptor (NTSR2); settings: binding affinity to its high-affinity receptor (NTSR2) according to the literature; ref [69]; cited from earlier work

Kd [1]: 32.9 µM
Substance: RRPYIL [NTS(8–13), fragment of the neurotensin peptide (RRPYIL)]
Kd [2]: 0.005 to 0.007 µM
